Experimental findings from US12285489B2, “Bone targeted antimicrobial oxazolidinone related compounds, formulations thereof, and uses thereof” (priority 2018, dated 2025) are described below.

Converted amounts (≈) assume the structure as drawn. Read-outs that look alike come from different tables or passages of the source.

What is called MIC is the least concentration at which growth counts as inhibited.

What all share (type): cell-based
The subject of experiment [1] is S. aureus. Kind of experiment: Antimicrobial susceptibility (MIC/MBEC), standard assays in polystyrene wells. The conditions noted are these: for MIC: Staphylococcus aureus.
The test system of experiment [2] is S. aureus. Kind of experiment: Preventative hydroxyapatite (HA) experiment. Conditions: K-W test, p<0.01; comparator=control; FIG. 16. An excerpt: FIG. 16 depicts the results of a preventative hydroxyapatite (HA) experiment with tested compounds against S. aureus.
FIG. 16 depicts the results of a preventative hydroxyapatite (HA) experiment with tested compounds against S. aureus. […] (K-W test, * p<0.01; comparator=control). The results were obtained using standard assays.

In experiment [3] the test system is S. aureus biofilm. Kind of experiment: Ex vivo rat femur biofilm prevention setting. The conditions noted are these: rat femurs saturated with compound; K-W test, p<0.01; comparator=control; FIG. 18B. The source says:
FIG. 18A is a picture of rat femurs saturated with antibiotics or the conjugates after they are introduced to a solution of S. aureus in our ex vivo preventative experimental setting. The more the bone appears red, the more staphylococcal biofilms there are adhered to the surface in those regions.
FIG. 18A depicts a picture of rat femurs saturated with antibiotics or the conjugates after they are introduced to a solution of S. aureus in our ex vivo preventative experimental setting. The more the bone appears red, the more staphylococcal biofilms there are adhered to the surface in those regions.

The subject of experiment [4] is S. aureus biofilm. Kind of experiment: Ex vivo rat femur biofilm eradication setting. The conditions noted are these: K-W test, p<0.01, comparator=control, FIG. 18B.
The next experiment deals with Aa. Kind of experiment: Antimicrobial susceptibility (MIC/MBEC), standard assays in polystyrene wells.
The mark [5] stands for this setting: S. aureus, polystyrene wells, read-out: MIC.

Turning to `Cn1nnc(-c2ccc(-c3ccc(N4C[C@H](COC(=O)Nc5ccc(CC(P(=O)(O)O)P(=O)(O)O)cc5)OC4=O)cc3F)cn2)n1` [BCT, (R)-(2-(4-((((3-(3-fluoro-4-(6-(2-methyl-2H-tetrazol-5-yl)pyridin-3-yl)phenyl)-2-oxooxazolidin-5-yl)methoxy)carbonyl)amino)phenyl)ethane-1,1-diyl)bis(phosphonic acid)], in the experiment with S. aureus [1] (S. aureus, polystyrene wells), the MBEC amounted to 32 µg/mL. Moreover, the MIC in the experiment on S. aureus [1] (setting [5]) is 16 µg/mL (≈ 23.6 µM).
Consider `Cn1nnc(-c2ccc(-c3ccc(N4C[C@H](COC(=O)c5ccc(CC(P(=O)(O)O)P(=O)(O)O)cc5)OC4=O)cc3F)cn2)n1` [BET, (R)-(2-(4-(((3-(3-fluoro-4-(6-(2-methyl-2H-tetrazol-5-yl)pyridin-3-yl)phenyl)-2-oxooxazolidin-5-yl)methoxy)carbonyl)phenyl)ethane-1,1-diyl)bis(phosphonic acid)], for which the MBEC with S. aureus [1] (S. aureus, polystyrene wells) was determined as 16 µg/mL. The MIC with S. aureus [1] (setting [5]) stood at 4 µg/mL (≈ 6.04 µM). Further, the “efficacy for preventing the growth of staphylococcal cells on HA” value in the experiment with S. aureus [2] is on record as “statistically significant efficacy for preventing the growth of staphylococcal cells”. The “S. aureus biofilm prevention on femurs ex vivo” value in the experiment with S. aureus biofilm [3] is given as “significantly prevented or eradicated biofilm growth”. Also, in the experiment on S. aureus biofilm [4], the “S. aureus biofilm eradication on femurs ex vivo” value was “significantly prevented or eradicated biofilm growth”.
For the compound `O=C(O)c1cn(C2CC2)c2cc(N3CCNCC3)c(F)cc2c1=O` [C, Ciprofloxacin], the MBEC in the experiment with S. aureus [1] (S. aureus, polystyrene wells) was determined as 32 µg/mL; with Aa, 8 µg/mL. Further, the minimal inhibitory concentration (MIC) in the experiment on S. aureus [1] (setting [5]) and against Aa was 0.5 µg/mL (≈ 1.51 µM) each time.
As for `CN(C)c1ccc(O)c2c1C[C@H]1C[C@H]3[C@H](N(C)C)C(O)=C(C(N)=O)C(=O)[C@@]3(O)C(O)=C1C2=O` [M, Minocycline], the MBEC worked out at 16 µg/mL with S. aureus [1] (S. aureus, polystyrene wells) and 8 µg/mL with Aa. The figures for the MIC in the experiment on S. aureus [1] (setting [5]) and in the experiment on Aa were 0.25 µg/mL (≈ 0.546 µM) and 2 µg/mL (≈ 4.37 µM), respectively.
In the experiment with S. aureus [1] (S. aureus, polystyrene wells), `Cn1nnc(-c2ccc(-c3ccc(N4C[C@H](CO)OC4=O)cc3F)cn2)n1` [T, Tedizolid] returned an MBEC of 8 µg/mL. Also, the MIC with S. aureus [1] (setting [5]) is 0.5 µg/mL (≈ 1.35 µM).
For `CN[C@H](CC(C)C)C(=O)N[C@H]1C(=O)N[C@@H](CC(N)=O)C(=O)N[C@H]2C(=O)N[C@H]3C(=O)N[C@H](C(=O)N[C@H](C(=O)O)c4cc(O)cc(O)c4-c4cc3ccc4O)[C@H](O)c3ccc(c(Cl)c3)Oc3cc2cc(c3O[C@@H]2O[C@H](CO)[C@@H](O)[C@H](O)[C@H]2O[C@H]2C[C@](C)(N)[C@H](O)[C@H](C)O2)Oc2ccc(cc2Cl)[C@H]1O` [V, Vancomycin], in the experiment with S. aureus [1] (S. aureus, polystyrene wells), the MBEC is 8 µg/mL. The MIC against S. aureus [1] was 1 µg/mL (≈ 0.69 µM).
Consider `COc1c(N2C[C@@H]3CCCN[C@@H]3C2)c(F)cc2c(=O)c(C(=O)O)cn(C3CC3)c12` [X, Moxifloxacin], for which the MBEC was 0.5 µg/mL with S. aureus [1] (S. aureus, polystyrene wells) and 0.1 µg/mL in the experiment with Aa. The MIC in the experiment on S. aureus [1] (setting [5]) and with Aa was 0.05 µg/mL (≈ 0.125 µM) in each case.
